Columns and labels:
class I PI3K = test: PI3K HTRF assay (Reaction Biology), class I PI3K; type: biochemical, human; conditions: Yes = inhibition
[1] = biological target: T1, hemoglobin in human whole blood (WB) (Homo sapiens, UniProt P68871+P69905); test: Oxygen equilibrium curve (Hemox Analyzer), P50 in human whole blood; type: cell-based; conditions: blood matrix WB; for P50 (Torr): incubated 1-2 h at 37° C., n=3; for P50 increase (%): versus P50 control
T1 construct: Human whole blood was freshly withdrawn from healthy donors in heparinized microtubes; from tissue; host or cells: fresh human whole blood from healthy donors
Procedure: (§1) Some of the compounds described herein were tested for P50, the partial pressure of oxygen for half-saturation, on free hemoglobin (Hb) as well as human whole blood (WB) in different concentrations.
Human whole blood was freshly withdrawn from healthy donors in heparinized microtubes. The pH of the compound solutions was adjusted to approximately 7.0 and whole blood volumes at 1:1 ratios were incubated individually for 1-2 h at 37° C. with the above compounds. The measurement of the OEC was carried out with the Hemox Analyzer (TCS Scientific Co.) under the following conditions: pH 7.4, 135 mM NaCl, 5 mM KCl and 30 mM TES (N-[tris(hydroxymethyl)methyl]-2-aminoethanesulfonic acid) buffer at 37° C.

Human PI3Kβ (p110β/p85α) = biological target: T2, Human PI3Kβ (p110β/p85α) (Homo sapiens, UniProt P42338); test: PI3K HTRF assay, PI3Kβ; type: biochemical
T2 construct: N-terminal 6His-tagged recombinant full-length human p110β; 6His (N); purchased Reaction Biology Corporation (RBC), Malvern, Pa; host or cells: Baculovirus infected Sf21 cells

Human PI3Kδ (p110δ/p85α) = biological target: T3, Human PI3Kδ (p110δ/p85α) (Homo sapiens, UniProt O00329); test: PI3K HTRF assay, PI3Kδ; type: biochemical
T3 construct: N-terminal GST tagged recombinant full-length human p110δ; GST (N); purchased Reaction Biology Corporation (RBC), Malvern, Pa; host or cells: Baculovirus infected Sf9 cells

hemoglobin = hemoglobin (Homo sapiens, UniProt P68871+P69905); conditions: background statement; can displace Hb-bound BPG; cited from earlier work
free hemoglobin (Hb) = biological target: T4, free hemoglobin (Hb) (Homo sapiens, UniProt P68871+P69905); test: Oxygen equilibrium curve (Hemox Analyzer), P50 on free hemoglobin; type: biochemical; conditions: blood matrix Hb, 100 mM compound; for P50 (Torr): effector/Hb ratio 20, pH 7.4, 37° C., n=3; for P50 increase (%): versus P50 control
T4 construct: the cells were hemolysed by addition of 2 volumes of cold distilled water; tissue EFS-Alsace; host or cells: red blood cell concentrate
Procedure: as §1
The hemoglobin solution was prepared from red blood cells concentrate (EFS-Alsace) by washing three times with 1 volume of saline (1500×g, 10 min), the cells were hemolysed by addition of 2 volumes of cold distilled water. After centrifugation (7000×g, 30 min) for stroma removal, 5 ml of the clear hemoglobin solution were placed on a 2.5 cm×30 cm column of Sephadex G-25 equilibrated with 0.1 M sodium chloride+10^−5 M EDTA. The protein was eluted with the same solution at a rate of about 20 ml/h [Benesch, R.; Benesch, R. E. and Yu, C. I. Reciprocal binding of oxygen and diphosphoglycerate by human hemoglobin. Proc. Natl. Acad. Sci. USA (1968) 59, 526-532].
The allosteric modulation of the effectors was measured by the change in p50, the partial pressure of oxygen for half-saturation. The pH of the compound solutions was adjusted to approximately 7.0. Oxygen equilibrium curves (OEC) were carried out with the Hemox Analyzer (TCS Scientific Co.) under the following conditions: pH 7.4, 135 mM NaCl, 5 mM KCl and 30 mM TES (N—[tris(hydroxymethyl)methyl]-2-aminoethanesulfonic acid) buffer at 37° C. The concentration of free hemoglobin was 5·10^−3 M (577 nm, ε=58.4 mM^−1 cm^−1 per tetramer) and the final concentrations of the allosteric effectors were of 1.0·10^−1 M, resulting in an effector/Hb ratio of 20.

T4 sequence (P69905 2-142 limits assumed): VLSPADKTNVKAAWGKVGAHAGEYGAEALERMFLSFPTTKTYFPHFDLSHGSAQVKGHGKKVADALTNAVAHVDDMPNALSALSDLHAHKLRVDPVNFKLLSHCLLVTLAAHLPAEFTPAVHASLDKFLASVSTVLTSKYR
T4 sequence (P68871 2-147 limits assumed): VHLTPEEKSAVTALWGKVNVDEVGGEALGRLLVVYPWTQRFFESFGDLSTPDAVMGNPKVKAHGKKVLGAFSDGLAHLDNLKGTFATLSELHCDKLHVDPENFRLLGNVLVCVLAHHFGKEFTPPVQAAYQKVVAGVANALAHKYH
T1 sequence (P69905 2-142 limits assumed): as the sequence (P69905 2-142 limits assumed) above
T1 sequence (P68871 2-147 limits assumed): as the sequence (P68871 2-147 limits assumed) above
T3 sequence (O00329 whole entry): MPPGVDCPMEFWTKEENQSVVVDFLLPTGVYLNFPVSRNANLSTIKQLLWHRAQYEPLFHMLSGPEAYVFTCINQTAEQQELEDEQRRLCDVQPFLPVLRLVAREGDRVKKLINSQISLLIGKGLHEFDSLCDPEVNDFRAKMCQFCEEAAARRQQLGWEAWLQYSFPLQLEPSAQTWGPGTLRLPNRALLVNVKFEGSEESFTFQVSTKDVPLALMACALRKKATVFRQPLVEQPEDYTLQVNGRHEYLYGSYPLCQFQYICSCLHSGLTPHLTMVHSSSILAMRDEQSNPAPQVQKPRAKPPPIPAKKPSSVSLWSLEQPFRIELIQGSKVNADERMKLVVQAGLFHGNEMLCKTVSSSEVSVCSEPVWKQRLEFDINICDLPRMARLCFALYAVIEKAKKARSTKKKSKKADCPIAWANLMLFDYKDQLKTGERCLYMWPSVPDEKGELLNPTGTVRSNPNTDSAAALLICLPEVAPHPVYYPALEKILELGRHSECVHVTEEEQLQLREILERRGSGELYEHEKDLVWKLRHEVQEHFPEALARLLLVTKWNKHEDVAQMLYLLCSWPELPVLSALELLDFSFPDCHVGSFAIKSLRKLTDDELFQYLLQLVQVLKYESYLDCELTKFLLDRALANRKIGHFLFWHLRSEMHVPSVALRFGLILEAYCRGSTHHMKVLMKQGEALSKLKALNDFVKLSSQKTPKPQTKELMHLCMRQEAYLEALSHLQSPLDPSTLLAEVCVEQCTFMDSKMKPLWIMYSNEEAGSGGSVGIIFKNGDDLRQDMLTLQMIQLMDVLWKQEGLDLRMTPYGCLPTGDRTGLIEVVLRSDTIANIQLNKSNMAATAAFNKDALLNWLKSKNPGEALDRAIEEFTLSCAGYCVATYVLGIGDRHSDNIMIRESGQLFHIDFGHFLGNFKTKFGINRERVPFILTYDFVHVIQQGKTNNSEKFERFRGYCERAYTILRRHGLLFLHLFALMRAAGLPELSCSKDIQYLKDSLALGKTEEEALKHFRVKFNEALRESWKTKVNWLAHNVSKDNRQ
T3 sequence (P27986 whole entry partner): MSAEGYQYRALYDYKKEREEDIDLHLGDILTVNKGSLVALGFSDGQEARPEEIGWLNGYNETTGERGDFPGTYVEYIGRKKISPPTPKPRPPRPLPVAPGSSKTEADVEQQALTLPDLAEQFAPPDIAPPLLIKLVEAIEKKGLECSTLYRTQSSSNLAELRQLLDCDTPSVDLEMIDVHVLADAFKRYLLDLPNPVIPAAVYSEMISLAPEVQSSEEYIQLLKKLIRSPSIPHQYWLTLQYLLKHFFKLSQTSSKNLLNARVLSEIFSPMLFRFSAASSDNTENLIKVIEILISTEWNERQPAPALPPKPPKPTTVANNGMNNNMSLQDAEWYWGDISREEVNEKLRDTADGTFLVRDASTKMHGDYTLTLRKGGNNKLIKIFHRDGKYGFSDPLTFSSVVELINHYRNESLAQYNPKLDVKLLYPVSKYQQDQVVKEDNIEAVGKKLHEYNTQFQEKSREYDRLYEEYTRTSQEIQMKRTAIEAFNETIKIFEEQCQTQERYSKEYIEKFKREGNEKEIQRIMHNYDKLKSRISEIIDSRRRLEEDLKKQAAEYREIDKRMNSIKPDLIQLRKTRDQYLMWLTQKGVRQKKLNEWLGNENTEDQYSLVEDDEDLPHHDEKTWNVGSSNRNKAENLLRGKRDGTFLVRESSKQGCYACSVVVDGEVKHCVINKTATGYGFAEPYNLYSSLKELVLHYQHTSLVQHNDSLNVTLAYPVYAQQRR
T2 sequence (P42338 whole entry): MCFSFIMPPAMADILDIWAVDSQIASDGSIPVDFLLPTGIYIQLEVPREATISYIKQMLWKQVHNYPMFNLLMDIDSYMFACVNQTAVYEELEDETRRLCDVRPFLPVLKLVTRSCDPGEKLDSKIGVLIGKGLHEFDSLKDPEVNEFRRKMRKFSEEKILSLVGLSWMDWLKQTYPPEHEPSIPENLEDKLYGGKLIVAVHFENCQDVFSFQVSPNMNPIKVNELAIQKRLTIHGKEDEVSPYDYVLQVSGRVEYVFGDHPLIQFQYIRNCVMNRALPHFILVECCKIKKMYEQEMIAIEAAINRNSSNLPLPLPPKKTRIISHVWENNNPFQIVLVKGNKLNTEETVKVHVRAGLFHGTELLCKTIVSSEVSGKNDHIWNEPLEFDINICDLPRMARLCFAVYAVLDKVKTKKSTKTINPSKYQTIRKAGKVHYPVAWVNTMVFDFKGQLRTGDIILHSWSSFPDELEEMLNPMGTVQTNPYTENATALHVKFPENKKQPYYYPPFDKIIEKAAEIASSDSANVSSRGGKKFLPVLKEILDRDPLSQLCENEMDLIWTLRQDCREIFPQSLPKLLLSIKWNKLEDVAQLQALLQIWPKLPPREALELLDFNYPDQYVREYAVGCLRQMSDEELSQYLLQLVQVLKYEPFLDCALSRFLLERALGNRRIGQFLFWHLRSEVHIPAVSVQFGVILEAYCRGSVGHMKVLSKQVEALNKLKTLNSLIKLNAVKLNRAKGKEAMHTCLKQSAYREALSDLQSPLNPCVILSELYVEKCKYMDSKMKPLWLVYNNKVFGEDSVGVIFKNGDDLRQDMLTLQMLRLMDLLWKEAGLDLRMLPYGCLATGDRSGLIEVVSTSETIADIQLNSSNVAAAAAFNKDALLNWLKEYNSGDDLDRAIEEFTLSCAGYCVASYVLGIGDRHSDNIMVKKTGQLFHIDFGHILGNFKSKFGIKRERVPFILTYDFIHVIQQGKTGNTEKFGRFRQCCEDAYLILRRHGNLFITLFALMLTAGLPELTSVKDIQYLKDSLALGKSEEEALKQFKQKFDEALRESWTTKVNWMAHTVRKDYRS
T2 sequence (P27986 whole entry partner): as the sequence (P27986 whole entry partner) above
hemoglobin, sequence (P69905 2-142 limits assumed): as the sequence (P69905 2-142 limits assumed) above
hemoglobin, sequence (P68871 2-147 limits assumed): as the sequence (P68871 2-147 limits assumed) above

CCOC(=O)[C@@H]1OP(=O)([O-])OP(=O)([O-])O[C@H]1C(=O)OCC.[Na+].[Na+] [OXY3012, L-DET]
PI3 Kinase Inhibition (class I PI3K): Yes

Dibutyl-L-tartrate bisphosphate [SP1-219]
P50 (Torr) ([1]; 60 mM compound): 30.91 ± 1.76 Torr
P50 increase (%) ([1]; 60 mM compound): 11%
P50 (Torr) ([1]; 120 mM compound): 30.77 ± 1.44 Torr
P50 increase (%) ([1]; 120 mM compound): 11%

O=P1(O)OC2C3OP(=O)(O)OP(=O)(O)OC3C3OP(=O)(O)OP(=O)(O)OC3C2OP(=O)(O)O1 (stereo not shown) [OXY111A, Myo-ITPP]
PI3 Kinase Inhibition (class I PI3K): Yes
activity against PI3Kβ (Human PI3Kβ (p110β/p85α)): showed activity
activity against PI3Kδ (Human PI3Kδ (p110δ/p85α)): showed activity

O=P(O)(O)O[C@H]1[C@H](OP(=O)(O)O)[C@@H](OP(=O)(O)O)[C@H](OP(=O)(O)O)[C@@H](OP(=O)(O)O)[C@H]1OP(=O)(O)O [Phytic acid, myo-inositol hexakisphosphate]
potency relative to BPG (fold) (hemoglobin): 1000 fold

L-tartrate bisphosphate [SP1-90]
P50 (Torr) (free hemoglobin (Hb)): 24.76 ± 1.31 Torr
P50 increase (%) (free hemoglobin (Hb)): 127%

O=P(O)(O)OCC(OP(=O)(O)O)C(COP(=O)(O)O)OP(=O)(O)O (stereo not drawn) [SP1-134, meso-erythritol tetraphosphate]
P50 (Torr) (free hemoglobin (Hb)): 29.40 ± 1.20 Torr
P50 increase (%) (free hemoglobin (Hb)): 151%
P50 (Torr) ([1]; 120 mM compound): 30.17 ± 0.94 Torr
P50 increase (%) ([1]; 120 mM compound): 17%

meso-Me Galactarate [OXY3006]
PI3 Kinase Inhibition (class I PI3K): Yes

From patent US20140142052A1, “PHOSPHORYLATED POLYOLS, PYROPHOSPHATES, AND DERIVATIVES THEREOF HAVING BIOLOGICAL ACTIVITY” (NormOxys, Inc., priority 2012, published 2014)
